Measurements taken from ChEMBL document CHEMBL4371037, “5-Substituted-N-pyridazinylbenzamides as potent and selective LRRK2 inhibitors: Improved brain unbound fraction enables efficacy” (Bioorg Med Chem Lett, 2019).

What was measured:
[1] = Lipophilicity, log D of the compound at pH 7.4 by chromatographic method; assay type: physicochemical; conditions: buffer
[2] = Intrinsic clearance in human liver microsomes; assay type: ADME, Microsome
[3] = Drug level in naive rat blood at 5 mg/kg, iv administered as bolus dose followed by 5 ml/kg/hr iv infusion for 4 hrs; assay type: ADME, organism-based; conditions: read-out: Drug uptake
[4] = Drug level in naive rat brain at 5 mg/kg, iv administered as bolus dose followed by 5 ml/kg/hr iv infusion for 4 hrs; assay type: ADME, organism-based; conditions: read-out: Drug uptake
[5] = Drug level in naive rat kidney at 5 mg/kg, iv administered as bolus dose followed by 5 ml/kg/hr iv infusion for 4 hrs; assay type: ADME, organism-based; conditions: read-out: Drug uptake
[6] = Drug level in naive rat spleen at 5 mg/kg, iv administered as bolus dose followed by 5 ml/kg/hr iv infusion for 4 hrs; assay type: ADME, organism-based; conditions: read-out: Drug uptake
[7] = Brain to blood partition coefficient, Kp of the compound in naive rat at 5 mg/kg, iv administered as bolus dose followed by 5 ml/kg/hr iv infusion for 4 hrs; assay type: ADME, organism-based
[8] = Unbound brain-to-plasma concentration ratio in naive rat at 5 mg/kg, iv administered as bolus dose followed by 5 ml/kg/hr iv infusion for 4 hrs; assay type: ADME, organism-based; conditions: read-out: K(p,uu,brain)

Structure (SMILES) | chromatographic logD [1] | CLH [2] | also measured
CN1CCC(c2ccc(OCc3ccccc3)c(C(=O)Nc3ccnnc3)c2)CC1 | 2.3 | – | –
O=C(Nc1ccnnc1)c1cc(N2CCCC2)ccc1OCc1ccccc1 | 6.1 | 9.8 mL/min/g | –
CN1CC2(C1)CN(c1ccc(OCc3ccccc3)c(C(=O)Nc3ccnnc3)c1)C2 | 2 | – | –
N#Cc1cccc(NC(=O)c2cc(C(F)(F)F)ccc2OCc2ccc(F)cc2)c1 | 7.5 | – | –
O=C(Nc1ccnnc1)c1cc(N2CCOCC2)ccc1OCc1ccccc1 | 4.1 | 2.1 mL/min/g | concentration at 4 h [3]: 1130 ng/mL; concentration at 4 h [4]: 1630 ng/g; concentration at 4 h [5]: 3970 ng/g; concentration at 4 h [6]: 1680 ng/g; Kp at 4 h [7]: 1.44; Kp uu at 4 h [8]: 0.51
O=C(Nc1ccnnc1)c1cc(N2CC(F)C2)ccc1OCc1ccccc1 | 4.4 | 11.8 mL/min/g | –
O=C(Nc1ccnnc1)c1cc(N2CCC(CO)CC2)ccc1OCc1ccccc1 | 3.5 | 1 mL/min/g | –
CN1CCN(c2ccc(OCc3ccccc3)c(C(=O)Nc3ccnnc3)c2)CC1 | 3 | 1.6 mL/min/g | –
O=C(Nc1ccnnc1)c1cc(C(F)(F)F)ccc1OCc1ccccc1 | 5.4 | – | –
COCCN1CCC(c2ccc(OCc3ccccc3)c(C(=O)Nc3ccnnc3)c2)CC1 | 2.9 | < 0.78 mL/min/g | –
O=C(Nc1ccnnc1)c1cc(N2CC(F)(F)C2)ccc1OCc1ccccc1 | 5.1 | 9.5 mL/min/g | –
O=C(Nc1ccnnc1)c1cc(N2C[C@H]3COC[C@H]3C2)ccc1OCc1ccccc1 | 4.5 | 4.3 mL/min/g | –
O=C(Nc1ccnnc1)c1cc(N2CCC(F)CC2)ccc1OCc1ccccc1 | 5.1 | 5.5 mL/min/g | –
O=C(Nc1cccc(Cl)c1)c1cc(C(F)(F)F)ccc1OCc1ccccc1 | 8.8 | – | –
O=C(Nc1cccnc1)c1cc(C(F)(F)F)ccc1OCc1ccccc1 | 6.3 | – | –
O=C(Nc1ccnnc1)c1cc(N2CCC(O)CC2)ccc1OCc1ccccc1 | 3.2 | 0.6 mL/min/g | –
N#CC1CCN(c2ccc(OCc3ccccc3)c(C(=O)Nc3ccnnc3)c2)CC1 | 4.5 | 5.5 mL/min/g | –
C[C@@H]1COCCN1c1ccc(OCc2ccccc2)c(C(=O)Nc2ccnnc2)c1 | 4.5 | – | –
O=C(Nc1cccc(Cl)c1)c1cc(C(F)(F)F)ccc1OCc1ccc(F)cc1 | 8.7 | – | –
O=C(Nc1ccnnc1)c1cc(N2CCCCC2)ccc1OCc1ccccc1 | 6.3 | – | –
C[C@@H]1CN(c2ccc(OCc3ccccc3)c(C(=O)Nc3ccnnc3)c2)C[C@H](C)O1 | 5.4 | 2.2 mL/min/g | –
O=C(Nc1cccc(F)c1)c1cc(C(F)(F)F)ccc1OCc1ccc(F)cc1 | 8.2 | – | –
O=C(Nc1cccnc1)c1cc(C(F)(F)F)ccc1OCc1ccc(F)cc1 | 6.3 | – | –
COCCN1CCN(c2ccc(OCc3ccccc3)c(C(=O)Nc3ccnnc3)c2)CC1 | 3.8 | 1.3 mL/min/g | –
O=C(Nc1ccnnc1)c1cc(N2CCNCC2)ccc1OCc1ccccc1 | 1.9 | 0.4 mL/min/g | –
CN1CC2(CCN(c3ccc(OCc4ccccc4)c(C(=O)Nc4ccnnc4)c3)CC2)C1 | 2.2 | – | –
